Results reported in US20240300934A1, “COMPOUNDS FOR MODULATING MYCOBACTERIUM TUBERCULOSIS RESPONSE” (priority 2021, published 2024).
≈ marks a conversion by molar mass, not a printed value. Marks after values point to notes of the source that are not given here.

What was measured:
[1] = system: rv2390c′::GFP reporter Mtb strain; format: cell-based, Mycobacterium tuberculosis; details: for rv2390c′::GFP Cl− response phenotype: compared to C6
Mtb in J774 cells = test: Mtb growth in J774 macrophage-like cells (mKO fluorescence); format: cell-based, Mycobacterium tuberculosis; details: for Inhibition of Mtb growth in J774 cells phenotype: compared to C6; for % Reduction of Intracellular Infection (J774.1 cells) at 10 μM cmpd: 10 μM compound
Description: For the tertiary screen of selected hit compounds in J774 murine macrophage-like cells, 30,000 J774 cells/well were seeded in bar-coded 384-well black, clear bottom plates in a 30 μl volume in J774 infection media (DMEM+10% FBS+1 mM sodium pyruvate+2 mM L-glutamine) using a ThermoFisher Multidrop Combi reagent dispenser, one day prior to assay start. On the day of the assay, log-phase Mtb constitutively expressing mKO were pelleted and resuspended in 1 ml basal uptake buffer (0.5% bovine serum albumin+25 mM dextrose+0.5 mM MgCl2+1 mM CaCl2+0.1% gelatin in phosphate buffered saline (PBS), passed 6× though a tuberculin syringe with a 25 G×5/8″ needle, then resuspended in J774 infection media to a final OD600=0.2. 10 μl of this bacterial suspension was added to each well of the 384-well plates containing the J774 cells, followed by addition of 10 μl of the appropriate compounds (pre-aliquoted in v-bottom plates in a 1:1 mix of PBS:J774 infection media). Addition of Mtb and compounds were conducted using a Janus Ministation. For each test plate, two columns of controls (16 wells each) were included, with one column consisting of treatment with DMSO as a carrier control (negative control), and the other column consisting of treatment with 5 μM rifampicin (positive control). This tertiary assay was done as a dose-response assay in duplicate runs, with compounds tested beginning at a final concentration of 20 μM and two-fold dilutions down to 0.039 μM. Plates were kept in humidified ziplock bags in a 37° C., 5% CO2 incubator. 6 days post-infection, mKO fluorescence signal was read using a PerkinElmer EnVision multimode plate reader (bottom read filter, excitation 530/8 nm, Bodipy TMR D555 single mirror, emission 579/25 nm). mKO fluorescence in DMSO-treated control samples were defined as 100% growth, and fluorescence observed in treatment conditions calculated as a percentage from that set value.
For J774 infection in 96-well plates, 180,000 J774 cells were seeded per well in 180 μl of J774 infection media one day prior to infection. On the day of the assay, log-phase Mtb constitutively expressing mKO were pelleted and resuspended in 1 ml basal uptake buffer, passed 6× though a tuberculin syringe with a 25 G×5/8″ needle, then resuspended in J774 infection media to a final OD600=0.2. Media was removed from 96-well plate containing the J774 cells, with 140 μl of fresh J774 infection media added back to each well. 40 μl of the Mtb suspension at OD600=0.2 was added to each well, followed by addition of appropriate concentration of compound or DMSO in a 20 μl final volume in J774 infection media (compound final concentration 10 μM, rifampicin final concentration 5 μM, DMSO final concentration 0.1%/well). Bacterial mKO fluorescence was read immediately after infection using a Biotek Synergy Neo2 microplate reader (bottom read monochromator, excitation 543/10 nm, emission 565/10 nm), and again 6 days post-infection. Plates were kept in humidified ziplock bags in a 37° C., 5% CO2 incubator. mKO fluorescence in DMSO-treated control samples were defined as 100% growth, and fluorescence observed in treatment conditions calculated as a percentage from that set value.

[2] = Mouse pharmacokinetics, single oral dose; format: in vivo, CD-1 mice; details: female, single 25 mg/kg po dose; for Kp at 5 h: CD-1, mouse, lung vs plasma, read-out: Mouse PK Clung/Cplasma at t = 5 h; for AUC(0-t): mouse, plasma, CD-1 mice, read-out: Mouse PK AUC0-5h
Description: Blood samples were collected in K2EDTA coated tubes pre-dose, 0.5, 1, 3 and 5 hrs post-dose, placed on ice, and centrifuged to recover plasma. The recovered plasma was kept at −80° C. as needed prior to analysis, which was performed as previously described (Wang et al, 2020). In brief, a Sciex Applied Biosystems Qtrap 4000 triple-quadrupole mass spectrometer coupled to an Agilent 1260 HPLC system was used for HPLC coupled to tandem mass spectrometry (LC-MS/MS) quantitative analysis of the samples, with chromatography attained using an Agilent Zorbax SB-C8 column (2.1×30 mm; particle size, 3.5 μm) and a reverse phase gradient elution. The aqueous mobile phase consisted of Milli-Q deionized water with 0.1% formic acid (A), while the organic mobile phase was 0.1% formic acid in acetonitrile (B). The gradient set-up was as follows: 5-90% B over 2 mins, 1 min at 90% B, then an immediate drop to 5% B and an additional 1 min at 5% B. Quantification of molecules was carried out via multiple-reaction monitoring of parent/daughter transitions in electrospray positive-ionization mode, and sample analyses accepted if quality control and standard samples had concentrations within 20% of the nominal concentration. Preparation of compounds for generation of standard curves and quality control spiking solutions were performed as previously described (Wang et al, 2020). Data were processed using Analyst software (Version 1.6.2; Applied Biosystems Sciex).

[3] = Kinetic aqueous solubility in pH 7.4 PBS; format: physicochemical; details: PBS, pH 7.4, aqueous buffer, kinetic from dmso stock; Table 2; read-out: Kinetic Aqueous Solubility S
Description: (§1) Assays examining mouse and human liver microsomal stability, kinetic aqueous solubility, mouse and human plasma protein binding and stability, and human cytochrome P450 inhibition characteristics of the compounds were run by BioDuro, Incorporated, using standard protocols as previously described (Wang et al, 2020). hERG inhibition assays were also performed by BioDuro, Incorporated.

[4] = Mouse liver microsomal stability; format: in vitro ADME; details: mouse liver microsomes; read-out: MLM t1/2
Description: as §1

Mtb = Mtb growth assay in cholesterol media (OD600); format: cell-based, Mycobacterium tuberculosis

## CSc1ncc(CN2CCN(c3nc4ccccc4o3)CC2)cn1 [JSF-4730, 2-(4-((2-(methylthio)pyrimidin-5-yl)methyl)piperazin-1-yl)benzo[d]oxazole]
[1]
  rv2390c′::GFP Cl− response phenotype: Y
Mtb in J774 cells
  Inhibition of Mtb growth in J774 cells phenotype: Y

## CCSc1ncc(CN2CCN(c3nc4cccc(F)c4o3)CC2)cn1 [JSF-4516, 2-(4-((2-(ethylthio)pyrimidin-5-yl)methyl)piperazin-1-yl)-7-fluorobenzo[d]oxazole]
[1]
  rv2390c′::GFP Cl− response phenotype: N
Mtb in J774 cells
  Inhibition of Mtb growth in J774 cells phenotype: Y

## CCSc1ncc(C(=O)N2CCN(c3nc4ccccc4o3)CC2)cn1 [JSF-4683, (4-(benzo[d]oxazol-2-yl)piperazin-1-yl)(2-(ethylthio)pyrimidin-5-yl)methanone]
[1]
  rv2390c′::GFP Cl− response phenotype: N

## CCSc1ncc(CN2CCN(c3nc4ccc(C(F)(F)F)cc4o3)CC2)cn1 [JSF-4507, 2-(4-((2-(ethylthio)pyrimidin-5-yl)methyl)piperazin-1-yl)-6-(trifluoromethyl)benzo[d]oxazole]
[1]
  rv2390c′::GFP Cl− response phenotype: Y
Mtb in J774 cells
  Inhibition of Mtb growth in J774 cells phenotype: Y

## CCSc1ncc(CNCCNc2nc3ccccc3o2)cn1 [JSF-4547, N^1-(benzo[d]oxazol-2-yl)-N^2-((2-(ethylthio)pyrimidin-5-yl)methyl)ethane-1,2-diamine]
[1]
  rv2390c′::GFP Cl− response phenotype: N
Mtb in J774 cells
  Inhibition of Mtb growth in J774 cells phenotype: N

## CCSc1ncc(CN2CCN(c3nc4cc(Cl)ccc4o3)CC2)cn1 [JSF-4477, 5-chloro-2-(4-((2-(ethylthio)pyrimidin-5-yl)methyl)piperazin-1-yl)benzo[d]oxazole]
[1]
  rv2390c′::GFP Cl− response phenotype: Y

## CCSc1ncc(CN2CCN(c3nc4cc(OC)ccc4o3)CC2)cn1 [JSF-4528, 2-(4-((2-(ethylthio)pyrimidin-5-yl)methyl)piperazin-1-yl)-5-methoxybenzo[d]oxazole]
[1]
  rv2390c′::GFP Cl− response phenotype: N

## CCSc1ncc(CN2CCN(c3ncco3)CC2)cn1 [JSF-4747, 2-(4-((2-(ethylthio)pyrimidin-5-yl)methyl)piperazin-1-yl)oxazole]
[1]
  rv2390c′::GFP Cl− response phenotype: Y

## CCSc1ncc(CN2CCN(c3nc4c(F)cccc4o3)CC2)cn1 [JSF-4602, 2-(4-((2-(ethylthio)pyrimidin-5-yl)methyl)piperazin-1-yl)-4-fluorobenzo[d]oxazole]
[1]
  rv2390c′::GFP Cl− response phenotype: Y
Mtb in J774 cells
  Inhibition of Mtb growth in J774 cells phenotype: Y

## CCSc1ncc(CN2CCN(c3nc4cccc(Cl)c4o3)CC2)cn1 [JSF-4603, 7-chloro-2-(4-((2-(ethylthio)pyrimidin-5-yl)methyl)piperazin-1-yl)benzo[d]oxazole]
[1]
  rv2390c′::GFP Cl− response phenotype: Y
Mtb in J774 cells
  Inhibition of Mtb growth in J774 cells phenotype: Y

## CCSc1ncc(CN2CCN(c3nc4cc(C(F)(F)F)ccc4o3)CC2)cn1 [JSF-4526, 2-(4-((2-(ethylthio)pyrimidin-5-yl)methyl)piperazin-1-yl)-5-(trifluoromethyl)benzo[d]oxazole]
[2]
  Kp at 5 h: 0.44
  AUC(0-t): 27500 ng·h/mL
[3]
  solubility kinetic: 38.6 µM (≈ 16.3 µg/mL)
[1]
  rv2390c′::GFP Cl− response phenotype: Y
Mtb in J774 cells
  % Reduction of Intracellular Infection (J774.1 cells) at 10 μM cmpd: 52.4 ± 1.4%
  Inhibition of Mtb growth in J774 cells phenotype: Y
[4]
  half-life: 32 min

## CCSc1ncc(CN2CCN(c3nc4c(C)cccc4o3)CC2)cn1 [JSF-4551, 2-(4-((2-(ethylthio)pyrimidin-5-yl)methyl)piperazin-1-yl)-4-methylbenzo[d]oxazole]
[1]
  rv2390c′::GFP Cl− response phenotype: Y
Mtb in J774 cells
  Inhibition of Mtb growth in J774 cells phenotype: Y

## CCSc1ncc(CN2CCN(c3nc4cc(F)c(F)cc4o3)CC2)cn1 [JSF-4525, 2-(4-((2-(ethylthio)pyrimidin-5-yl)methyl)piperazin-1-yl)-5,6-difluorobenzo[d]oxazole]
[2]
  Kp at 5 h: 0.33
  AUC(0-t): 29700 ng·h/mL
[3]
  solubility kinetic: 0.952 µM (≈ 0.373 µg/mL)
[1]
  rv2390c′::GFP Cl− response phenotype: Y
Mtb in J774 cells
  % Reduction of Intracellular Infection (J774.1 cells) at 10 μM cmpd: 46.3 ± 2.9^b %
  Inhibition of Mtb growth in J774 cells phenotype: Y
[4]
  half-life: 39.8 min

## CCSc1ncc(CN2CCN(c3nc4c(Cl)cccc4o3)CC2)cn1 [JSF-4604, 4-chloro-2-(4-((2-(ethylthio)pyrimidin-5-yl)methyl)piperazin-1-yl)benzo[d]oxazole]
[1]
  rv2390c′::GFP Cl− response phenotype: Y
Mtb in J774 cells
  Inhibition of Mtb growth in J774 cells phenotype: Y

## CCSc1ncc(CN2CCN(c3nc4cccc(C)c4o3)CC2)cn1 [JSF-4562, 2-(4-((2-(ethylthio)pyrimidin-5-yl)methyl)piperazin-1-yl)-7-methylbenzo[d]oxazole]
[1]
  rv2390c′::GFP Cl− response phenotype: Y
Mtb in J774 cells
  Inhibition of Mtb growth in J774 cells phenotype: Y

## CCSc1ncc(CN2CCN(c3nc4ccc(F)cc4o3)CC2)cn1 [JSF-4509, 2-(4-((2-(ethylthio)pyrimidin-5-yl)methyl)piperazin-1-yl)-6-fluorobenzo[d]oxazole]
[1]
  rv2390c′::GFP Cl− response phenotype: Y

## CCSc1ncc(CN2CCN(c3nc4ccccc4s3)CC2)cn1 [JSF-4298, 2-(4-((2-(ethylthio)pyrimidin-5-yl)methyl)piperazin-1-yl)benzo[d]thiazole]
[1]; 10 μM, 250 mM NaCl
  rv2390c′::GFP reporter signal upon Mtb exposure to high [Cl−] (in words): continuing to demonstrate the phenotypes seen with the parental C6 compound
[1]
  rv2390c′::GFP Cl− response phenotype: Y
Mtb; 10 μM, OD600
  Mtb growth in cholesterol media (in words): continuing to demonstrate the phenotypes seen with the parental C6 compound
Mtb; compared to C6
  Growth inhibition in cholesterol media phenotype: Y
Mtb in J774 cells; 10 μM, 6 days post-infection
  Mtb growth in J774 cells (in words): continuing to demonstrate the phenotypes seen with the parental C6 compound

## CCSc1ncc(CN2CCN(c3nc4cc(C)ccc4o3)CC2)cn1 [JSF-4471, 2-(4-((2-(ethylthio)pyrimidin-5-yl)methyl)piperazin-1-yl)-5-methylbenzo[d]oxazole]
[1]
  rv2390c′::GFP Cl− response phenotype: Y
Mtb in J774 cells
  Inhibition of Mtb growth in J774 cells phenotype: Y

## CCSc1ncc(CN2CCN(c3nc4ccc(Cl)cc4o3)CC2)cn1 [JSF-4467, 6-chloro-2-(4-((2-(ethylthio)pyrimidin-5-yl)methyl)piperazin-1-yl)benzo[d]oxazole]
[2]
  Kp at 5 h: 0.36
  AUC(0-t): 41700 ng·h/mL
[3]
  solubility kinetic: 8.3 µM (≈ 3.24 µg/mL)
[1]
  rv2390c′::GFP Cl− response phenotype: Y
Mtb in J774 cells
  % Reduction of Intracellular Infection (J774.1 cells) at 10 μM cmpd: 50.6 ± 2.0%
  Inhibition of Mtb growth in J774 cells phenotype: Y
[4]
  half-life: 54.3 min

## CCSc1ncc(CN2CCN(c3nc4cccc(C(F)(F)F)c4o3)CC2)cn1 [JSF-4601, 2-(4-((2-(ethylthio)pyrimidin-5-yl)methyl)piperazin-1-yl)-7-(trifluoromethyl)benzo[d]oxazole]
[1]
  rv2390c′::GFP Cl− response phenotype: Y
